36 compounds from US20260085073A1, “PYRAZOLYLCARBOXAMIDE COMPOUNDS AND THEIR USE IN THERAPY” (Hotspot Therapeutics, Inc., priority 2022, published 2026) can be followed below.

SMILES strings stand for the structures.

This experiment deals with T1, MALT1 (Homo sapiens, UniProt Q9UDY8).
T1 construct: Avi-tagged FL MALT-1 (Pharmaron, stored at −70° C.); Avi-tag
T1 sequence (Q9UDY8 1-824): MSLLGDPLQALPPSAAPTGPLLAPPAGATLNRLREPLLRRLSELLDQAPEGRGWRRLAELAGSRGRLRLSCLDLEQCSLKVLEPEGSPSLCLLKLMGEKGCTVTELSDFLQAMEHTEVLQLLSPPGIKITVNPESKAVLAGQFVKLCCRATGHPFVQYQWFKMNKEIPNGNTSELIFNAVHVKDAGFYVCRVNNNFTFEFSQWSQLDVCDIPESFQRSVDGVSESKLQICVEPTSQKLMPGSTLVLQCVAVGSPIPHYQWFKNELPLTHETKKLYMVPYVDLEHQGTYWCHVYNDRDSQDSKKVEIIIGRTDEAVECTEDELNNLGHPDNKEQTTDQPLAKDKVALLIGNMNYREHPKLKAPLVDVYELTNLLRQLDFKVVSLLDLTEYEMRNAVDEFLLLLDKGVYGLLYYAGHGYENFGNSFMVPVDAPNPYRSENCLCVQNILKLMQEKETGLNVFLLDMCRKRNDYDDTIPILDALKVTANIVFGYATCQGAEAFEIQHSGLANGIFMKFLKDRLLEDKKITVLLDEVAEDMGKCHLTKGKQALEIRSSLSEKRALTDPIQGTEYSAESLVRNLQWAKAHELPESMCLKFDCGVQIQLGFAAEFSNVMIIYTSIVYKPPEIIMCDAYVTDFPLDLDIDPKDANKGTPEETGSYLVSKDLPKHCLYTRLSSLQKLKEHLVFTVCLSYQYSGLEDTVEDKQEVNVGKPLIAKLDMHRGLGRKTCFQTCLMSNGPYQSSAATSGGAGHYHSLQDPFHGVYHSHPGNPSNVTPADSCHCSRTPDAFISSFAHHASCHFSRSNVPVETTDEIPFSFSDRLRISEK
Put plainly: MALT1 inhibition assay (MALT-1 Fluorogenic Peptide Cleavage Assay, Ac-LRSR-AMC substrate). Type of experiment: biochemical. Conditions: Avi-tagged FL MALT-1, 30 min pre-incubation, 90 min reaction at room temperature, fluorescence intensity. As for the experimental part:
Example 71—MALT1 Inhibition Assay
Compounds were tested for ability to bind to MALT1.
Inhibition of MALT1 activity by the presence of small molecules was evaluated using MALT-1 Fluorogenic Peptide Cleavage Assay. The assay utilizes a quenched AMC-labelled peptide that contains the MALT-1 recognition sequence and cleavage site (LRSR). MALT-1 mediated cleavage of the peptide relieves the quenching and leads to an increase in fluorescence at excitation (342 nm) and emission (441 nm).
The following reagents were obtained commercially and used to prepare standard reagent formulations as further described below: N-2-hydroxyethylpiperazine-N-2-ethane sulfonic acid (HEPES) (1 M, pH 7.5, stored at 4° C.), sodium citrate (stored at RT), tris(2-carboxyethyl) phosphine hydrochloride (T-CEP) (500 mM, stored at −20° C.), ethylenediaminetetraacetic acid (EDTA) (500 mM, stored at RT), dimethylsulfoxide (DMSO, stored at RT), 3-[(3-cholamidopropyl)dimethylammonio]-1-propane sulphate (CHAPS) (stored at RT), dimethylsulfoxide (DMSO), DMSO (Fisher Scientific, stored at RT), Avi-tagged FL MALT-1 (Pharmaron, stored at −70° C.), Ac-LRSR-AMC Peptide (SM Biochemicals, stored at −20° C.), and ultrapure water (MILLI-QR).
The standard reagent formulations used in this assay were prepared and stored as follows. A 1.1 M solution of sodium citrate (161.3 g, 500 mL) was prepared and stored at room temperature. A 10% (w/v) CHAPS solution (2.0 g, 20 mL) was prepared and stored at 4° C. A 500 mM HEPES solution having pH of 6.89 was prepared from 200 mL of a 1 M HEPES solution having a pH of 7.5 using concentrated hydrochloric acid and brought to a final volume of 400 mL with MILLI-QR H2O. The substrate, 10 mM Ac-LRSR-AMC Peptide, was prepared (10 mg, 1.370 mL DMSO) and stored at −20° C.
Compounds were plated to provide a 2% DMSO final concentration using a ProxiPlate-384 Plus F Black 384-shallow well microplate. The assay-ready plates were equilibrated to room temperature. A reaction buffer (30 mL total volume) was prepared by combining HEPES (pH 6.89, 25 mM, 1.5 mL), sodium citrate (660 mM, 18.0 mL), T-CEP (1 mM, 0.06 mL), EDTA ([…], 0.06 mL), CHAPS (0.05%, 0.15 mL), DMSO (2%, 0.6 mL), and MILLI-QR H2O (10.23 mL; 9.63 mL when backfilled to 2% DMSO) followed by thorough mixing. DMSO was added only when compound plates had not been DMSO-backfilled to 2%.
MALT-1 was thawed and kept on ice. Peptide substrate was thawed on the bench under ambient conditions. A MALT-1 enzyme working stock was prepared from Avi-tagged FL MALT-1 (40 nM in a prepared reagent volume of 16.5 μL) and the reaction buffer (13.0 mL). MALT1 working stock (5 μL) was added to each well of the microplate. MALT-1 was pre-incubated with compounds for 30 minutes at room temperature.
Two substrate working stocks (Km and 10×Km) were prepared. The 1×Km substrate was prepared from Ac-LRSR-AMC Peptide (50 μM in a prepared reagent volume of 35.0 μL) and the reaction buffer (6.965 mL). The 10×Km substrate was prepared from Ac-LRSR-AMC Peptide (280 μM in a prepared reagent volume of 196.0 μL) and the reaction buffer (6.804 mL). The reaction was initiated by the addition of substrate working stock (5 μL, 50 μM) to Km plates and the addition of substrate working stock (5 μL 280 μM) to 10×Km plates. The plates were covered and incubated on the bench at room temperature for 90 minutes.
Fluorescence intensity was determined using a CLARIOstar microplate reader (BMG LABTECH) using the optimised AMC mode. Before taking readings, a 70% gain was applied on the neutral control well. Compound data were normalised to % Inhibition and used to plot sigmoidal concentration response curves to yield various parameters including IC50.
What is called IC50 is the point on the concentration scale where inhibition reaches its midpoint. A higher IC50 goes with weaker potency in that assay. `Cn1nc(-c2ccccc2)cc1C(=O)Nc1ccc(C(=O)N2CC(O)C2)c(Cl)c1` [Compound I-207] had an IC50 greater than 10000 nM. `Cn1nc(-c2cccc3c2OCCCO3)c(C(F)(F)F)c1C(=O)Nc1ccnc(C(F)(F)F)c1` [Compound I-25] came in with an IC50 of 2500 to 10000 nM. For the compound `O=C(Nc1cnc(-n2nccn2)c(Cl)c1)c1cc(-c2ccccc2)nn1C(F)F` [Compound I-181], the IC50 is 2500 to 10000 nM. Regarding `Cn1nc(-c2cccc3occc23)c(C(F)(F)F)c1C(=O)Nc1cnc(-n2nccn2)c(C(F)(F)F)c1` [Compound I-146], the half-inhibitory concentration (IC50) was less than 500 nM. `Cn1nc(C(=O)Nc2cnc(-n3nccn3)c(Cl)c2)c(C(F)(F)F)c1-c1cccc2c1OCO2` [Compound I-142] showed an IC50 of less than 500 nM.

In turn, `Cn1nc(-c2cccc3ncsc23)c(C(F)(F)F)c1C(=O)Nc1cnc(-n2nccn2)c(C(F)F)c1` [Compound I-286] had a half-maximal inhibitory concentration (IC50) of less than 500 nM.

The compound `Cn1nc(-c2ccccc2)c(C2CC2)c1C(=O)Nc1ccnc(C(F)(F)F)c1` [Compound I-205] showed a concentration for half-maximal inhibition (IC50) of 500 to 2500 nM. `CN1Cc2c(cccc2-c2nn(C)c(C(=O)Nc3ccnc(C(F)(F)F)c3)c2C(F)(F)F)C1=O` [Compound I-98]: the 50% inhibitory concentration (IC50) is greater than 10000 nM. With `Cn1nc2c(c1C(=O)Nc1ccnc(C(F)(F)F)c1)CCc1ccccc1-2` [Compound I-258], the IC50 lay within 2500 to 10000 nM. With `Cn1nc(-c2cccc3[nH]c(=O)ccc23)c(C(F)(F)F)c1C(=O)Nc1ccnc(C(F)(F)F)c1` [Compound I-249] the figure was 2500 to 10000 nM. For `Cc1cc(NC(=O)c2c(C(F)(F)F)c(-c3ccccc3)nn2C)cnc1-n1ccnn1` [Compound I-136], the half-maximal inhibitory concentration (IC50) lay within 2500 to 10000 nM. In the case of `Cn1nc(-c2cccc3ccsc23)c(C(F)(F)F)c1C(=O)Nc1ccnc(C(F)(F)F)c1` [Compound I-99], the half-maximal inhibitory concentration (IC50) is less than 500 nM. Take `Cn1nc(-c2cnc(N)c3ccccc23)c(C(F)(F)F)c1C(=O)Nc1ccnc(C(F)(F)F)c1` [Compound I-77]: the IC50 lay in the range of 500 to 2500 nM. With `COc1nc2cccc(-c3nn(C)c(C(=O)Nc4ccnc(C(F)(F)F)c4)c3C(F)(F)F)c2s1` [Compound I-293] the figure was greater than 10000 nM; with `Cc1nc2cccc(-c3nn(C)c(C(=O)Nc4ccnc(C(F)(F)F)c4)c3C(F)(F)F)c2s1` [Compound I-226], greater than 10000 nM. The compound `Cn1nc(C(=O)Nc2ccc(C(=O)N3CC(O)C3)c(Cl)c2)cc1-c1ccccc1` [Compound I-155] had an IC50 greater than 10000 nM. `Cn1nc(-c2cc(OC3COC3)ccc2Cl)c(C(F)(F)F)c1C(=O)Nc1ccnc(C(F)(F)F)c1` [Compound I-93] gave a concentration for half-maximal inhibition (IC50) of 500 to 2500 nM. `Cn1nc(-c2cccc3ccoc23)c(C(F)(F)F)c1C(=O)Nc1cnc(-n2nccn2)c(Cl)c1` [Compound I-129] returned a half-inhibitory concentration (IC50) of less than 500 nM. `Cn1nc(-c2cccc3c2OCC3)c(C(F)(F)F)c1C(=O)Nc1ccnc(C(F)(F)F)c1` [Compound I-158, 3-(2,3-dihydrobenzofuran-7-yl)-1-methyl-4-(trifluoromethyl)-N-(2-(trifluoromethyl)pyridin-4-yl)-1H-pyrazole-5-carboxamide] had an IC50 of less than 500 nM. As to `Cn1nc(-c2cncc3ccccc23)c(C(F)(F)F)c1C(=O)Nc1ccnc(C(F)(F)F)c1` [Compound I-160], the IC50 fell in the range of 500 to 2500 nM. With `Cn1cc2c(-c3nn(C)c(C(=O)Nc4ccnc(C(F)(F)F)c4)c3C(F)(F)F)cccc2n1` [Compound I-62] the figure was 2500 to 10000 nM; with `Cn1nc([C@@H]2C[C@H]2c2ccccc2)c(C(F)(F)F)c1C(=O)Nc1ccnc(C(F)(F)F)c1` (racemic) [Compound I-40], greater than 10000 nM.

For the compound `CNc1nc2cccc(-c3nn(C)c(C(=O)Nc4ccnc(C(F)(F)F)c4)c3C(F)(F)F)c2s1` [Compound I-281], the IC50 lay within 2500 to 10000 nM.

Regarding `Cn1nc(-c2cccn3nncc23)c(C(F)(F)F)c1C(=O)Nc1ccnc(C(F)(F)F)c1` [Compound I-233], the IC50 lay in the range of 2500 to 10000 nM. Regarding `Cn1nc(-c2cccc3cnccc23)c(C(F)(F)F)c1C(=O)Nc1ccnc(C(F)(F)F)c1` [Compound I-27], the IC50 lay in the range of 500 to 2500 nM. The compound `Cn1nc(-c2cccc3c2CC(=O)N3)c(C(F)(F)F)c1C(=O)Nc1ccnc(C(F)(F)F)c1` [Compound I-12] registered an IC50 of 500 to 2500 nM. With `Cn1nc(-c2cccc3nc(N)sc23)c(C(F)(F)F)c1C(=O)Nc1cnc(-n2nccn2)c(Cl)c1` [Compound I-299, 3-(2-aminobenzo[d]thiazol-7-yl)-N-(5-chloro-6-(2H-1,2,3-triazol-2-yl)pyridin-3-yl)-1-methyl-4-(trifluoromethyl)-1H-pyrazole-5-carboxamide] the figure was less than 500 nM; with `Cn1nc(-c2cccc3occc23)c(C(F)(F)F)c1C(=O)Nc1cnc(-n2nccn2)c(Cl)c1` [Compound I-145], less than 500 nM; with `Cn1nc(-c2ccc(F)c3c2OCO3)c(C(F)(F)F)c1C(=O)Nc1ccnc(C(F)(F)F)c1` [Compound I-50], less than 500 nM.

Take `Cn1nc(-c2cncc3sccc23)c(C(F)(F)F)c1C(=O)Nc1ccnc(C(F)(F)F)c1` [Compound I-42, 1-methyl-3-(thieno[2,3-c]pyridin-4-yl)-4-(trifluoromethyl)-N-(2-(trifluoromethyl)pyridin-4-yl)-1H-pyrazole-5-carboxamide]: the IC50 was less than 500 nM. In the case of `Cn1nc(-c2cccc3ncsc23)c(C(F)(F)F)c1C(=O)Nc1cnc(-n2nccn2)c(C(F)(F)F)c1` [Compound I-125], the IC50 is less than 500 nM. For the compound `Cn1nc(-c2cccc3cnn(C)c23)c(C(F)(F)F)c1C(=O)Nc1ccnc(C(F)(F)F)c1` [Compound I-61], the half-maximal inhibitory concentration (IC50) is 500 to 2500 nM. With `Cn1nc2c(c1C(=O)Nc1cnc(-n3nccn3)c(Cl)c1)CCCc1ccccc1-2` [Compound I-254], the IC50 was in the range of 500 to 2500 nM. `Cn1nc(-c2ccc(Cl)c3nccn23)c(C(F)(F)F)c1C(=O)Nc1ccnc(C(F)(F)F)c1` [Compound I-248] came in with a half-inhibitory concentration (IC50) greater than 10000 nM. With `Cn1nc(-c2ccnc3c2OCO3)c(C(F)(F)F)c1C(=O)Nc1ccnc(C(F)(F)F)c1` [Compound I-72] the figure was 500 to 2500 nM.

With `Cn1nc(-c2cccc3ncc(F)cc23)c(C(F)(F)F)c1C(=O)Nc1ccnc(C(F)(F)F)c1` [Compound I-250], the IC50 was in the range of 500 to 2500 nM.
